Experiment: MRI of mice after tail vein injection, maximum pixel intensity of the kidney
Assay type: in vivo, mouse
Method: FIG. 2A-2B. MRI of a mouse injected with Magnevist® (gadopentetate dimeglumine) (A) and a mouse injected with nanoparticles loaded with gadopentetate dimeglumine (B). The left images are pre-injection, center images are 4 hours post injection, and right images are 24 hours post injection. […] A study was conducted to address the efficacy with which CA-loaded particles can provide MRI images. MRI images of mice were acquired pre-injection. Subsequently mice were injected (via the tail vein) with one of the following: i) a suspension of empty nanoparticles; ii) a suspension of nanoparticles loaded with Magnevist® (gadopentetate dimeglumine, a commercial Gd based MRI contrast reagent); and iii) Magnevist® solution. Mice were then imaged immediately after injection of each of these materials and again at 2 hours, 4 hours and 24 hours post injection. Maximum pixel intensity of the kidney was measured (relative to the background) at each time point using ImageJ software.

CNC[C@H](O)[C@@H](O)[C@H](O)[C@H](O)CO.CNC[C@H](O)[C@@H](O)[C@H](O)[C@H](O)CO.O=C([O-])CN(CCN(CC(=O)[O-])CC(=O)O)CCN(CC(=O)[O-])CC(=O)O.[Gd+3] [Magnevist®, gadopentetate dimeglumine]
increase of maximum pixel intensity of the kidney (4 hours post-injection, tail vein, one mouse each): 32% | signal intensity throughout the GI tract (24 hour time point): not observed | MRI contrast (FIG. 2) (24 hours post-injection): returned to pre-injection levels | change of maximum pixel intensity of the kidney (24 hours post-injection, additional increase over 4 hours): returned to pre-injection levels
